# Values of other authors as cited in patent US20250268823A1, “Aqueous Quetiapine Solutions” (RELIIS LTD, priority 2022, published 2025).
# Structures can show the parent of a compound that is named as a salt.
# Key:
# [1] = target: dopaminergic D1 receptors (Homo sapiens, UniProt P21728)
# [2] = system: α2-adrenergic receptors
# [3] = system: α1-adrenergic receptors
# [4] = target: dopaminergic D2 receptors (Homo sapiens, UniProt P14416)
# dopaminergic D2 receptors, sequence (P14416 whole entry): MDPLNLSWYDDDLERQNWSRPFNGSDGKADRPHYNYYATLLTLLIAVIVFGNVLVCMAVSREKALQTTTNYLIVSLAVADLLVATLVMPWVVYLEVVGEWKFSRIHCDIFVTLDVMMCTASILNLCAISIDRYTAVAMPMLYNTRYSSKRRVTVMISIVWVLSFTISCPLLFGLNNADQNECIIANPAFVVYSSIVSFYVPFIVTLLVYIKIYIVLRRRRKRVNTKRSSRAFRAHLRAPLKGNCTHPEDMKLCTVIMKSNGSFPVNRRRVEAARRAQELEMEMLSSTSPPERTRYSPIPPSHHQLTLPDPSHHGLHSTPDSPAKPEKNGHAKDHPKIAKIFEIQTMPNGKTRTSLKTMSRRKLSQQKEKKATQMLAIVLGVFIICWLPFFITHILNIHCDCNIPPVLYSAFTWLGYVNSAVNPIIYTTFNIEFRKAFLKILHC
# dopaminergic D1 receptors, sequence (P21728 whole entry): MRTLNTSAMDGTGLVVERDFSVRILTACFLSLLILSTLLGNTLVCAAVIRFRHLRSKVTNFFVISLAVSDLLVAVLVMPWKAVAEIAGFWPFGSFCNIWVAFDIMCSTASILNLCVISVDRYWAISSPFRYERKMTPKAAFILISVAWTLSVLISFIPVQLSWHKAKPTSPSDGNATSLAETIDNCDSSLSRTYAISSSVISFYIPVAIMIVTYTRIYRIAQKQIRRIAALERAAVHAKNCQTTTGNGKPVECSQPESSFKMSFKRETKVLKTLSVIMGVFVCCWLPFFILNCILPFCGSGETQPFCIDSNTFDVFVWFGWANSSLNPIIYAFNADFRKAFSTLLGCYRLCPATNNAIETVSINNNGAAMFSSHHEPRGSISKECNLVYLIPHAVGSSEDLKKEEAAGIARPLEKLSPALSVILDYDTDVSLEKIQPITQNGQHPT
affinity to D1 receptors [1],affinity to α2-adrenergic receptors [2],affinity to α1-adrenergic receptors [3],affinity to D2 receptors [4],binding at D2 receptors [4],solubility in water,Compound
major affinity,moderate affinity,moderate affinity,major affinity,low binding,–,"OCCOCCN1CCN(C2=Nc3ccccc3Sc3ccccc32)CC1 [Quetiapine, 2-(2-(4-(dibenzo[b,f][1,4]thiazepin-11-yl)piperazin-1-yl)ethoxy)ethanol]"
–,–,–,–,–,about 0.04 mg/ml,OCCOCCN1CCN(C2=Nc3ccccc3Sc3ccccc32)CC1 [quetiapine fumarate]
